From patent US20260234211A1, “POLYPEPTIDE HAVING MODIFIED STRUCTURE AND USE THEREOF” (Guangdong Raynovent Biotech Co., Ltd., priority 2023, published 2026)
Where two headings read alike, the source gives them in different places. Numbered stars: 1 amine (or outer) side, 2 acyl side, 3 side chain; on linkers, the order of the positions; unused ones are H or OH. Bridge positions count the residues as written; N and C are the ends. Square brackets hold non-standard residues; d marks the D form. Peptide text beside a SMILES is read from it. X2 = O=C(O)CCCCCCCCCCCCCCCCCCC(=O)N[C@@H](CCC(=O)NCCOCCOCC(=O)N[C@@H](CCC(=O)[*:2])C(=O)[*:1])C(=O)O; αMeL = CC(C)C[C@](C)(N)C(=O)O; Aib = CC(C)(N)C(=O)O

Experiments:
[1] = Pharmacokinetic properties in Cynomolgus macaques; details: cynomolgus monkey, in vivo, male cynomolgus macaques, plasma; for AUC(0-t): read-out: AUC0-240 h; for AUC(0-inf): read-out: AUCINF; for Cmax: read-out: Cmax; for half-life: read-out: T1/2 (converted); for Tmax: read-out: Tmax
Method: To test the pharmacokinetic profiles of the compounds in Cynomolgus macaques.
Non-juvenile male cynomolgus macaques were used for experiment, 3 cynomolgus macaques for each compound. Whole blood was collected at time points of 1 h, 2 h, 4 h, 8 h, 16 h, 24 h, 48 h, 72 h, 120 h, 168 h and 240 h after administration, to prepare plasma. The drug concentration was analyzed by LC-MS/MS method, and the pharmacokinetic parameters were calculated using Phoenix WinNonlin software.

[2] = Metabolic stability in human kidney S9; format: in vitro ADME
Method: The metabolic stability of the compounds in human kidney was evaluated to determine whether the drugs would be degraded by metabolic enzymes in the kidney to affect the efficacies and pharmacokinetics. 1. Relevant solutions were formulated. 2. a) With cofactors (NADPH & UDPGA): NADPH and UDPGA were added during the incubation. […] H2O was added into the culture solution. The final concentration of KS9 Fractions was 1 mg/mL. The mixture was pre-heated at 37° C. for 10 min. […] In this study, 7-hydroxy-coumarin and Raloxifene were used as the positive control. The final concentration of the positive control compounds was 0.2 μM, and the final concentration of the test compound was 1 μM. The culture solution was incubated in water bath at 37° C. 4. At 0.5, 5, 15, 30 and 60 min, volume aliquots were taken from the reaction solution and the reaction was stopped by adding acetonitrile. The samples were centrifuged for 30 min. The supernatant was taken and mixed with ultrapure water for subsequent LC-MS/MS analysis. 5. Data analysis: All calculation was conducted using Microsoft Excel. Peak areas were determined and slope values were calculated based on the extracted ion chromatograms.

| SMILES | AUC(0-t) [1] [µM·h] | AUC(0-inf) [1] [µM·h] | Cmax [1] [nM] | half-life [1] [h] | Tmax [1] [h] | half-life at 0.2 μM ([2]; human, s9) [h] | microsomal CLint at 0.2 μM ([2]; human, s9) [µL/min/mg] | also measured |
| --- | --- | --- | --- | --- | --- | --- | --- | --- |
| CC[C@H](C)[C@H](NC(=O)[C@H](Cc1ccccc1)NC(=O)[C@H](C)NC(=O)C(C)(C)NC(=O)[C@H](CCC(N)=O)NC(=O)[C@H](C)NC(=O)[C@@H]1CCCCNC(=O)CN(C(=O)COCCOCCNC(=O)CC[C@H](NC(=O)CCCCCCCCCCCCCCCCCCC(=O)O)C(=O)O)CC(=O)NCCCC[C@H](NC(=O)[C@](C)(CC(C)C)NC(=O)[C@@H](NC(=O)[C@H](CO)NC(=O)[C@H](Cc2ccc(O)cc2)NC(=O)[C@H](CC(=O)O)NC(=O)[C@H](CO)NC(=O)[C@@H](NC(=O)[C@H](Cc2ccccc2)NC(=O)[C@@H](NC(=O)CNC(=O)[C@H](CCC(N)=O)NC(=O)C(C)(C)NC(=O)[C@@H](N)Cc2ccc(O)cc2)[C@@H](C)O)[C@@H](C)O)[C@@H](C)CC)C(=O)N[C@@H](CC(=O)O)C(=O)N[C@@H](CCCCN)C(=O)N1)C(=O)N[C@@H](CCC(=O)O)C(=O)N[C@@H](Cc1ccc(O)cc1)C(=O)N[C@@H](CC(C)C)C(=O)N[C@@H](CC(C)C)C(=O)N[C@@H](CCC(=O)O)C(=O)NCC(=O)NCC(=O)N1CCC[C@H]1C(=O)N[C@@H](CO)C(=O)N[C@@H](CO)C(=O)NCC(=O)N[C@@H](C)C(=O)N1CCC[C@H]1C(=O)N1CCC[C@H]1C(=O)N1CCC[C@H]1C(=O)N[C@@H](CO)C(N)=O [Example 21, YAibQGT FTSDY SIα- MeL^1KD K^1KAQAib AFIEY LLEGG PSSGA PPPS-NH2 (SEQ ID NO: 24)] | 4.6 | 5.94 | 31.2 | 105 | 40 | – | – | microsomal CLint at 1 μM ([2]; Human kidney S9 1 mg/mL, +Cofactors (NADPH & UDPGA), 37° C., read-out: in vitro CLint): < 3.75 µL/min/mg; half-life at 1 μM ([2]; Human kidney S9 1 mg/mL, +Cofactors (NADPH & UDPGA), 37° C., read-out: in vitro t1/2): > 3.08 h |
| CC[C@H](C)[C@@H]1NC(=O)[C@H](Cc2ccccc2)NC(=O)[C@H](C)NC(=O)C(C)(C)NC(=O)[C@H](CCC(N)=O)NC(=O)[C@H](C)NC(=O)[C@@H](NC(=O)[C@H](CCCCN)NC(=O)[C@H](CC(=O)O)NC(=O)[C@H](CC(C)C)NC(=O)[C@](C)(CC(C)C)NC(=O)[C@@H](NC(=O)[C@H](CO)NC(=O)[C@H](Cc2ccc(O)cc2)NC(=O)[C@H](CC(=O)O)NC(=O)[C@H](CO)NC(=O)[C@@H](NC(=O)[C@H](Cc2ccccc2)NC(=O)[C@@H](NC(=O)CNC(=O)[C@H](CCC(N)=O)NC(=O)C(C)(C)NC(=O)[C@@H](N)Cc2ccc(O)cc2)[C@@H](C)O)[C@@H](C)O)[C@@H](C)CC)CCCCNC(=O)CN(C(=O)COCCOCCNC(=O)COCCOCCNC(=O)CC[C@H](NC(=O)CCCCCCCCCCCCCCCCCCC(=O)O)C(=O)O)CC(=O)NCCCC[C@@H](C(=O)N[C@@H](Cc2ccc(O)cc2)C(=O)N[C@@H](CC(C)C)C(=O)N[C@@H](CC(C)C)C(=O)N[C@@H](CCC(=O)O)C(=O)NCC(=O)NCC(=O)N2CCC[C@H]2C(=O)N[C@@H](CO)C(=O)N[C@@H](CO)C(=O)NCC(=O)N[C@@H](C)C(=O)N2CCC[C@H]2C(=O)N2CCC[C@H]2C(=O)N2CCC[C@H]2C(=O)N[C@@H](CO)C(N)=O)NC1=O [Example 11, YAibQGT FTSDY SIα- MeLLD K^1KAQAib AFI^1KY LLEGG PSSGA PPPS-NH2 (SEQ ID NO: 17)] | – | – | – | – | – | – | – | half-life at 1 μM ([2]; human, s9): > 3.08 h; microsomal CLint at 1 μM ([2]; human, s9): < 3.75 µL/min/mg |
| O=C(c1ccc(OCCN2CCCCC2)cc1)c1c(-c2ccc(O)cc2)sc2cc(O)ccc12 [Raloxifene, reference compound] | – | – | – | – | – | 1.56 | 7.77 | – |
| CC[C@H](C)[C@H](NC(=O)[C@H](Cc1ccccc1)NC(=O)[C@@H]1CCCCNC(=O)CN(C(=O)COCCOCCNC(=O)CC[C@H](NC(=O)CCCCCCCCCCCCCCCCCCC(=O)O)C(=O)O)CC(=O)NCCCC[C@H](NC(=O)[C@H](CCCCN)NC(=O)[C@H](CC(=O)O)NC(=O)[C@H](CC(C)C)NC(=O)[C@](C)(CC(C)C)NC(=O)[C@@H](NC(=O)[C@H](CO)NC(=O)[C@H](Cc2ccc(O)cc2)NC(=O)[C@H](CC(=O)O)NC(=O)[C@H](CO)NC(=O)[C@@H](NC(=O)[C@H](Cc2ccccc2)NC(=O)[C@@H](NC(=O)CNC(=O)[C@H](CCC(N)=O)NC(=O)C(C)(C)NC(=O)[C@@H](N)Cc2ccc(O)cc2)[C@@H](C)O)[C@@H](C)O)[C@@H](C)CC)C(=O)N[C@@H](C)C(=O)N[C@@H](CCC(N)=O)C(=O)NC(C)(C)C(=O)N1)C(=O)N[C@@H](CCC(=O)O)C(=O)N[C@@H](Cc1ccccc1)C(=O)N[C@@H](CC(C)C)C(=O)N[C@@H](CC(C)C)C(=O)N[C@@H](CCC(=O)O)C(=O)NCC(=O)NCC(=O)N1CCC[C@H]1C(=O)N[C@@H](CO)C(=O)N[C@@H](CO)C(=O)NCC(=O)N[C@@H](C)C(=O)N1CCC[C@H]1C(=O)N1CCC[C@H]1C(=O)N1CCC[C@H]1C(=O)N[C@@H](CO)C(N)=O [Example 9, YAibQGT FTSDY SIα- MeLLD K^1KAQAib ^1KFIEF LLEGG PSSGA PPPS-NH2 (SEQ ID NO: 15)] | 3.23 | 3.64 | 30.1 | 77.4 | 29.3 | – | – | – |
| CC[C@H](C)[C@H](NC(=O)[C@H](Cc1ccccc1)NC(=O)[C@@H]1CCCCNC(=O)CC[C@H](NC(=O)COCCOCCNC(=O)CC[C@H](NC(=O)CCCCCCCCCCCCCCCCCCC(=O)O)C(=O)O)C(=O)NCCCC[C@H](NC(=O)[C@H](CCCCN)NC(=O)[C@H](CC(=O)O)NC(=O)[C@H](CC(C)C)NC(=O)[C@](C)(CC(C)C)NC(=O)[C@@H](NC(=O)[C@H](CO)NC(=O)[C@H](Cc2ccc(O)cc2)NC(=O)[C@H](CC(=O)O)NC(=O)[C@H](CO)NC(=O)[C@@H](NC(=O)[C@H](Cc2ccccc2)NC(=O)[C@@H](NC(=O)CNC(=O)[C@H](CCC(N)=O)NC(=O)C(C)(C)NC(=O)[C@@H](N)Cc2ccc(O)cc2)[C@@H](C)O)[C@@H](C)O)[C@@H](C)CC)C(=O)N[C@@H](C)C(=O)N[C@@H](CCC(N)=O)C(=O)NC(C)(C)C(=O)N1)C(=O)N[C@@H](CCC(=O)O)C(=O)N[C@@H](Cc1ccc(O)cc1)C(=O)N[C@@H](CC(C)C)C(=O)N[C@@H](CC(C)C)C(=O)N[C@@H](CCC(=O)O)C(=O)NCC(=O)NCC(=O)N1CCC[C@H]1C(=O)N[C@@H](CO)C(=O)N[C@@H](CO)C(=O)NCC(=O)N[C@@H](C)C(=O)N1CCC[C@H]1C(=O)N1CCC[C@H]1C(=O)N1CCC[C@H]1C(=O)N[C@@H](CO)C(N)=O [Example 8, YAibQGT FTSDY SIα- MeLLD K^1KAQAib ^1KFIEY LLEGG PSSGA PPPS-NH2 (SEQ ID NO: 1)] (H-Y[Aib]QGTFTSDYSI[αMeL]LDKKAQ[Aib]KFIEYLLEGGPSSGAPPPS-NH2; linker 17-21 via X2 (inferred); N-terminus assumed) | – | – | – | – | – | – | – | half-life ([2]; human, s9): > 3.08 h; microsomal CLint ([2]; human, s9): < 3.75 µL/min/mg |
| O=c1ccc2ccc(O)cc2o1 [7-Hydroxy-courmarin, 7-hydroxy-coumarin, reference compound] | – | – | – | – | – | 1.69 | 6.84 | – |
